Assay results from PubChem BioAssay (NCI).
Several values for one entry are separate records, joined by “and”; a condition that tells them apart may be missing. Equal entries are not always repeated.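 Values below derive from 48-hour exposures of cells grown in 96-well plates, with endpoints linearly interpolated between the two concentrations bracketing the appropriate inhibition level. GI50 = concentration required for 50% inhibition of growth. TGI: total growth inhibition.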

Columns and labels:
Test in all cases: inhibition of tumour cell growth, NCI panel, 48 h
[1] = tested on: BT-549 breast
[2] = tested on: DU-145 prostate
[3] = tested on: EKVX NSCLC
[4] = tested on: LOX IMVI melanoma
[5] = tested on: NCI-H226 lung
[6] = tested on: NCI-H23 lung
[7] = tested on: NCI-H522 lung
[8] = tested on: SF-268 CNS
[9] = tested on: SF-295 CNS
[10] = tested on: SK-OV-3 ovarian

| Structure (SMILES) | GI50 [1] | TGI [1] | GI50 [2] | TGI [2] | GI50 [3] | TGI [3] | GI50 [4] | TGI [4] | GI50 [5] | TGI [5] | GI50 [6] | TGI [6] | GI50 [7] | TGI [7] | GI50 [8] | TGI [8] | GI50 [9] | TGI [9] | GI50 [10] | TGI [10] |
| --- | --- | --- | --- | --- | --- | --- | --- | --- | --- | --- | --- | --- | --- | --- | --- | --- | --- | --- | --- | --- |
| C[C@@H]1CN2[C@H]3[C@@H]1CC[C@]31CCC(=O)O[C@]1(C)[C@H]1CC[C@H]3CCC=C3[C@@H]12 | > 30 µM | > 30 µM | > 30 µM | > 30 µM | > 30 µM | > 30 µM | > 30 µM | > 30 µM | > 30 µM | > 30 µM | > 30 µM | > 30 µM | > 30 µM | > 30 µM | > 30 µM | > 30 µM | > 30 µM | > 30 µM | > 30 µM | > 30 µM |
| CS(=O)(=O)OCCN(CCOS(C)(=O)=O)c1ccc(C=Nc2ccc(-c3csc(COc4ccccc4)n3)cc2)cc1 | – | 37 µM | – | 14.2 µM | – | 16.5 µM | – | 18.1 µM | – | 18.2 µM | – | 14 µM | – | 0.868 µM | – | 14.6 µM | – | 17.8 µM | – | 12.2 µM |
| NS(=O)(=O)c1ccc(N(/C=C/C(=O)C(F)(F)F)CC(=O)c2ccc(F)cc2)cc1 | 19.3 µM | 43.3 µM | 20.6 µM | 52.2 µM | 29.7 µM | 87.2 µM | 13.8 µM | 34.6 µM | 22.6 µM | 40.9 µM | 20.4 µM | 57.7 µM | 26.1 µM | 51.5 µM | 34.8 µM | > 100 µM | 26.4 µM | 85.7 µM | 63.3 µM | > 100 µM |
| CCCCn1c(=O)[nH]c(N)c([C@@H]2c3c([nH]c(=O)n(CCCC)c3=O)Oc3ccc4ccccc4c32)c1=O | 1.83 µM | 3.57 µM | 1.8 µM | 3.25 µM | 4.64 µM | 18.8 µM | 1.29 µM | 2.69 µM | 4.96 µM | 25.2 µM | 1.73 µM | 3.7 µM | 2.57 µM | 6.36 µM | 1.76 µM | 3.58 µM | 5.83 µM | 19.2 µM | 2.74 µM | 11.9 µM |
| O=c1[nH]c2ccccc2n1C1CCNCC1 | > 100 µM | > 100 µM | > 100 µM | > 100 µM | > 100 µM | > 100 µM | > 100 µM | > 100 µM | > 100 µM | > 100 µM | > 100 µM | > 100 µM | > 100 µM | > 100 µM | > 100 µM | > 100 µM | > 100 µM | > 100 µM | > 100 µM | > 100 µM |
| COc1cc(/C=C/C(=O)c2cccc(-n3cc(-c4ccccc4)[nH]c3=O)c2)cc(OC)c1OC | 1.93 µM | 5.47 µM | 2.16 µM | 7.85 µM | 2.3 µM | 11.4 µM | 0.489 µM | 1.67 µM | 14.6 µM | 97.4 µM | 1.43 µM | 3.29 µM | 0.958 µM | 2.52 µM | 1.92 µM | 5.74 µM | 1.9 µM | 4.41 µM | 3.27 µM | 11.3 µM |
| O=P1(NCCCl)OCCCN1CCCl (stereo not drawn) | – | > 500 µM | – | > 500 µM | – | 447 µM | – | 402 µM | – | 425 µM | – | 454 µM | – | 360 µM | – | 426 µM | – | 429 µM | – | 424 µM |
| Cc1ccc(NC(=O)c2ccc(CN3CCN(C)CC3)cc2)cc1Nc1nc(-c2cccnc2)cs1 | 8.5 µM and 3.79 µM | 22.1 µM and > 10 µM | 15 µM and > 10 µM | 28.4 µM and > 10 µM | 13.6 µM and > 10 µM | 29.8 µM and > 10 µM | 2.47 µM and 3.06 µM | 5.8 µM and > 10 µM | 7.94 µM and 4.12 µM | 29.6 µM and > 10 µM | 12.6 µM and > 10 µM | 29.7 µM and > 10 µM | 10.5 µM and 3.55 µM | 23.4 µM and > 10 µM | 12.6 µM and > 10 µM | 26.7 µM and > 10 µM | 3.3 µM and 1.92 µM | 13.8 µM and 5.48 µM | 19.1 µM and > 10 µM | 40 µM and > 10 µM |
| CC1CCCCCC(=O)c2c(O)cc(O)cc2CC(=O)O1 (stereo not drawn) | – | > 100 µM | – | > 100 µM | – | > 100 µM | – | > 100 µM | – | > 100 µM | – | > 100 µM | – | > 100 µM | – | > 100 µM | – | > 100 µM | – | > 100 µM |
| O=[N+]([O-])c1ccc(C2=NCCO2)cc1 | > 100 µM | > 100 µM | > 100 µM | > 100 µM | > 100 µM | > 100 µM | > 100 µM | > 100 µM | > 100 µM | > 100 µM | > 100 µM | > 100 µM | > 100 µM | > 100 µM | > 100 µM | > 100 µM | > 100 µM | > 100 µM | > 100 µM | > 100 µM |
| C/C(=C\C(=O)O[C@H]1[C@@H]2[C@H](C)CC[C@H]2[C@]2(C)O[C@@]1(C1CCCCC1)C[C@H]2OC(=O)CO)c1ccccc1 | 0.12 µM | 4.21 µM | 7.01 µM | 12.6 µM | 6.46 µM | 12.5 µM | 6.97 µM | 12.9 µM | 5.98 µM | 12.3 µM | 6.87 µM | 13.9 µM | 6.55 µM | 13.1 µM | 0.2 µM | 8.47 µM | 6.08 µM | 11.7 µM | 7.15 µM | 13.2 µM |
| CCC(=C(c1ccc(OCCN2CCCCC2)cc1)c1ccc(OCCN2CCCCC2)cc1)c1ccc(Cl)cc1 | > 16.7 µM | > 16.7 µM | > 16.7 µM | > 16.7 µM | > 16.7 µM | > 16.7 µM | 2.31 µM | 4.84 µM | > 16.7 µM | > 16.7 µM | > 16.7 µM | > 16.7 µM | 7.72 µM | > 16.7 µM | 6.7 µM | > 16.7 µM | 6.53 µM | > 16.7 µM | > 16.7 µM | > 16.7 µM |
| CC(=O)/C(=C\c1ccc(Cl)cc1)c1ccccc1 | 0.107 µM | 0.946 µM | 0.285 µM | > 100 µM | 1.82 µM | > 100 µM | 0.123 µM | 16.2 µM | 2.3 µM | > 90.1 µM | 0.26 µM | > 100 µM | 0.0745 µM | 3.26 µM | 0.201 µM | > 100 µM | 0.054 µM | > 100 µM | 0.0942 µM | > 100 µM |
| C[N+]1([O-])C2CCC1CC(OC(=O)C(CO)c1ccccc1)C2 (stereo not drawn) | – | > 100 µM | – | > 100 µM | – | > 100 µM | – | > 100 µM | – | > 100 µM | – | > 100 µM | – | > 100 µM | – | > 100 µM | – | > 100 µM | – | > 100 µM |
| Cc1ccc(N)c(S)c1 | – | 36.4 µM | – | 29.1 µM | – | 31.5 µM | – | 30 µM | – | 49.1 µM | – | 36.3 µM | – | 33.5 µM | – | 46.2 µM | – | 43.4 µM | – | 70.8 µM |
| CCOC(=O)c1noc2c1CCc1c-2cn(Cc2ccc(OC)cc2)c1-c1cc(OC)c(OC)c(OC)c1 | 1.47 µM | 35.1 µM | 2.32 µM | 6.14 µM | 3.92 µM | > 100 µM | 0.646 µM | > 100 µM | > 100 µM | > 100 µM | 3.04 µM | > 100 µM | 0.369 µM | > 100 µM | 8.07 µM | > 100 µM | 3.02 µM | > 100 µM | 5.23 µM | > 100 µM |
| Nc1c(C(=O)Nc2cccc(Cl)c2)sc2nc3c(cc12)C(=O)CCC3 | 0.948 µM | > 100 µM | 0.377 µM | > 100 µM | – | > 100 µM | 0.905 µM | > 100 µM | 11.1 µM | > 100 µM | 0.751 µM | > 100 µM | 0.19 µM | 0.788 µM | > 45.4 µM | > 100 µM | 0.243 µM | – | 0.313 µM | > 70.5 µM |
